According to article PMC11081424 (Protein Science : A Publication of the Protein Society, 2024):

Molecular target: T1, TPARED (Comamonas sp., UniProt Q3C1E0)
T1 sequence (Q3C1E0 1-336): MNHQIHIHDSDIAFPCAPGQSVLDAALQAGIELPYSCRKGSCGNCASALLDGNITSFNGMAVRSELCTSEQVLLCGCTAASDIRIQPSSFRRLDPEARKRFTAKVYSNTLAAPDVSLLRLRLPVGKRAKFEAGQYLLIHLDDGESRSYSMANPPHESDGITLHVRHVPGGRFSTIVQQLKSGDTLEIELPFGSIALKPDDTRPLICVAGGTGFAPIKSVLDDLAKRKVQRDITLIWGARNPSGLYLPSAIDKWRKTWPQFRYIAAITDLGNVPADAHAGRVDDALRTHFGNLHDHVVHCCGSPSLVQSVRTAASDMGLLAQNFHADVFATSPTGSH
Assay: FAD released by acid denaturation, UV/vis at […] nm
Type: binding
Settings: as purified, three purifications

equivalents of FAD per protein: 0.95 ± 0.08 equivalents
SMILES: Cc1cc2nc3c(=O)[nH]c(=O)nc-3n(C[C@H](O)[C@H](O)[C@H](O)COP(=O)(O)OP(=O)(O)OC[C@H]3O[C@@H](n4cnc5c(N)ncnc54)[C@H](O)[C@@H]3O)c2cc1C [FAD]
